Test results from US12509447B2, “Small molecule compound” (Technoderma Medicines Pte Ltd, priority 2019, dated 2025).

Experiments:
Type in all cases: biochemical
Tyk2 = Tyk2 (Homo sapiens, UniProt P29597); assay: Inhibition of JAK kinase activity, EZ Reader microfluidic phosphorylation of peptide substrate: Tyk2; conditions: Tyk2 kinase 1 nM; highest final concentration 10 μM, 1:3 serial dilution, 8 points, duplicates
From the text: (§1) EZ Reader available from PerkinElmer can be used for detecting the phosphorylation of polypeptide substrates catalyzed by kinases. This device is based on microfluidic separation technology, and can directly detect fluorescence labeled substrates and products. The separation step is achieved in a microfluidic chip by controlling the pressure and electric field intensity. In a kinase experiment, the product conversion rate is generally controlled at 20-30%. This biological assay method is used for identifying the inhibitory effect of the compounds on JAK.
(§2) The compound powder was dissolved in DMSO, sealed and stored in a refrigerator at −20° C. The in-house compound Ref1 was used as a positive control for testing of JAK1, JAK2 and Tyk2, and Ref2 was used as a positive control for testing of JAK3.
(§3) • S2.1. 1M HEPES buffer: 0.5M HEPES free acid and 0.5M HEPES sodium salt are weighed, added into ultrapure water for dissolution, brought to a desired volume, filtered and stored in a refrigerator at 4° C. • S2.2. 40 mM ATP solution: dissolved in a 50 mM HEPES buffer solution, prepared into 40 mM, aliquoted, and cryopreserved in a refrigerator at −20° C. • S2.3. 0.5% Tween 20: 100% Tween 20 was diluted with ultrapure water, and stored in a refrigerator at 4° C. • S2.4. 35% bovine serum albumin: a 35% bovine serum albumin solution is prepared in ultrapure water, aliquoted, and stored in a refrigerator at −20° C. • S2.5. 1M dithiothreitol solution: dithiothreitol is formulated into a 1M solution with ultrapure water, aliquoted, and stored in a refrigerator at −20° C. • S2.6. 0.5 mM Jaktide Peptide substrate solution: it is dissolved in 50 mM HEPES to 0.5 mM, aliquoted, and stored in a refrigerator at −20° C. • S2.7. 0.5 mM IRStide Peptide substrate solution: it is dissolved in 50 mM HEPES to 0.5 mM, aliquoted, and stored in a refrigerator at −20° C. • S2.8. Assay Buffer: 20 mM HEPES buffer, pH 7.4, 10 mM magnesium chloride, 0.01% bovine serum albumin BSA, 0.0005% Tween-20, and a 1 mM dithiothreitol solution. • S2.9. Stop Buffer: 180 mM HEPES buffer, 20 mM ethylenediamine tetraacetic acid (EDTA), and 0.2% Coating Reagent 3. • S2.10. Separation Buffer: 100 mM HEPES buffer, 10 mM EDTA, 0.0005% Tween 20, 0.1% Coating Reagent 3, and 1% dimethyl sulfoxide. 3. Experimental Procedures • S3.1. Preparation of compound plate
(§4) The compound is dissolved in dimethyl sulfoxide to 10 mM, a certain volume is taken and diluted to 0.6 mM, 10 μl of the diluted 0.6 mM solution is taken and added into a 384 microplate or 1:3 serial dilution, with a total of 8 concentration points. • S3.2. Compound layout
(§5) • positive control (HPE1): Ref1, final concentration: 10 μM • positive control (HPE1): Ref2, final concentration: 10 μM • negative control (ZPE): DMSO, with a final concentration of 1.6% • Compound: the highest final concentration at 10 μM, 1:3 serial dilution, with 8 concentration points and in duplicates. 4. Experimental operation steps • S4.1. the experimental plate was added with 250 nl of the compound per well with ECHO, and centrifuged at 1,000 rpm for 1 minute; • S4.2. the precipitate was added with 5 μl of the experimental buffer, and shaken for several seconds to fully dissolve the compound; • S4.3. the solution was added with 5 μl of a 3× substrate solution, as well as 5 μl of a 3× kinase solution, and centrifuged at 800 rpm for 1 minute; • S4.4. The final concentrations of JAK1, JAK2, JAK3 and Tyk2 kinases in the reaction system are 20, 1, 1 and 1 nM, respectively. • S4.5. the reaction system is incubated at room temperature, wherein the incubation time of each kinase is different, and there are differences in incubation time of different batches of kinases. • S4.6. When the reaction reaches 20%-30%, the reaction system is added with 15 μl of the stop buffer to terminate the reaction, and centrifuged at 1,000 rpm for 2 minutes. • S4.7. The precipitate was placed onto a EZ Reader for plate reading. • S4.8. […]

JAK1 = JAK1 (Homo sapiens, UniProt P23458); assay: Inhibition of JAK kinase activity, EZ Reader microfluidic phosphorylation of peptide substrate: JAK1; conditions: JAK1 kinase 20 nM; highest final concentration 10 μM, 1:3 serial dilution, 8 points, duplicates
From the text: as §1, §2, §3, §4, §5

JAK2 = JAK2 (Homo sapiens, UniProt O60674); assay: Inhibition of JAK kinase activity, EZ Reader microfluidic phosphorylation of peptide substrate: JAK2; conditions: JAK2 kinase 1 nM; highest final concentration 10 μM, 1:3 serial dilution, 8 points, duplicates
From the text: as §1, §2, §3, §4, §5

JAK3 = molecular target: T1, JAK3 (Homo sapiens, UniProt P52333); assay: Inhibition of JAK kinase activity, EZ Reader microfluidic phosphorylation of peptide substrate: JAK3; conditions: JAK3 kinase 1 nM; highest final concentration 10 μM, 1:3 serial dilution, 8 points, duplicates
T1 sequence (P52333 1-1124): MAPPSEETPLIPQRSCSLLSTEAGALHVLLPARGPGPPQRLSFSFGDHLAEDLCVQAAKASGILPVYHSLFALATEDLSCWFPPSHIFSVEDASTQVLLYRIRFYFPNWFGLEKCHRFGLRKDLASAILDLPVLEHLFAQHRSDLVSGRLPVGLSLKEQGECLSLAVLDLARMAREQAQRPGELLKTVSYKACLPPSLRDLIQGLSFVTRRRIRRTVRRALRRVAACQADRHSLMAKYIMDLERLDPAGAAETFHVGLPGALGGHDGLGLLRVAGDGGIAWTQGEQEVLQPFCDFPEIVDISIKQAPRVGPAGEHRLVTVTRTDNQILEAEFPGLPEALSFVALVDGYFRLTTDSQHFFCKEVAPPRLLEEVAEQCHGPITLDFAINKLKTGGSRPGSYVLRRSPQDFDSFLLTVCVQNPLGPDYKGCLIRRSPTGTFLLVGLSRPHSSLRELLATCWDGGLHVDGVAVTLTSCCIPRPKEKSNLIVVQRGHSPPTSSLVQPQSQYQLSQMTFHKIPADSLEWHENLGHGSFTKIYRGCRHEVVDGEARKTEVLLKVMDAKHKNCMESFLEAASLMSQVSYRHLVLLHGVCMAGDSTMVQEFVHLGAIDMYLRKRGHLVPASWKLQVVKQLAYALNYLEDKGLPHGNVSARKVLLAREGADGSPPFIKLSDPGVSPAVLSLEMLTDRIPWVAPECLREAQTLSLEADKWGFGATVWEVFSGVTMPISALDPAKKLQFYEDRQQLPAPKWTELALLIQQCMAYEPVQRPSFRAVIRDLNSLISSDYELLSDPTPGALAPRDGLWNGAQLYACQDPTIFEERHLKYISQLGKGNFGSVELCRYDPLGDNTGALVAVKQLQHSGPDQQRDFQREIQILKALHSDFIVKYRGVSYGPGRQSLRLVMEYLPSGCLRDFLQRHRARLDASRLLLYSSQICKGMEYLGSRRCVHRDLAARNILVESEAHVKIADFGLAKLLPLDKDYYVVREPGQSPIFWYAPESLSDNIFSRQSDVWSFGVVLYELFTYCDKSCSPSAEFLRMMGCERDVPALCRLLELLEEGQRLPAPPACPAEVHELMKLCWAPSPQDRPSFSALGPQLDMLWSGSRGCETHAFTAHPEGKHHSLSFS
From the text: as §1, §2, §3, §4, §5

JAK2, sequence (O60674 whole entry): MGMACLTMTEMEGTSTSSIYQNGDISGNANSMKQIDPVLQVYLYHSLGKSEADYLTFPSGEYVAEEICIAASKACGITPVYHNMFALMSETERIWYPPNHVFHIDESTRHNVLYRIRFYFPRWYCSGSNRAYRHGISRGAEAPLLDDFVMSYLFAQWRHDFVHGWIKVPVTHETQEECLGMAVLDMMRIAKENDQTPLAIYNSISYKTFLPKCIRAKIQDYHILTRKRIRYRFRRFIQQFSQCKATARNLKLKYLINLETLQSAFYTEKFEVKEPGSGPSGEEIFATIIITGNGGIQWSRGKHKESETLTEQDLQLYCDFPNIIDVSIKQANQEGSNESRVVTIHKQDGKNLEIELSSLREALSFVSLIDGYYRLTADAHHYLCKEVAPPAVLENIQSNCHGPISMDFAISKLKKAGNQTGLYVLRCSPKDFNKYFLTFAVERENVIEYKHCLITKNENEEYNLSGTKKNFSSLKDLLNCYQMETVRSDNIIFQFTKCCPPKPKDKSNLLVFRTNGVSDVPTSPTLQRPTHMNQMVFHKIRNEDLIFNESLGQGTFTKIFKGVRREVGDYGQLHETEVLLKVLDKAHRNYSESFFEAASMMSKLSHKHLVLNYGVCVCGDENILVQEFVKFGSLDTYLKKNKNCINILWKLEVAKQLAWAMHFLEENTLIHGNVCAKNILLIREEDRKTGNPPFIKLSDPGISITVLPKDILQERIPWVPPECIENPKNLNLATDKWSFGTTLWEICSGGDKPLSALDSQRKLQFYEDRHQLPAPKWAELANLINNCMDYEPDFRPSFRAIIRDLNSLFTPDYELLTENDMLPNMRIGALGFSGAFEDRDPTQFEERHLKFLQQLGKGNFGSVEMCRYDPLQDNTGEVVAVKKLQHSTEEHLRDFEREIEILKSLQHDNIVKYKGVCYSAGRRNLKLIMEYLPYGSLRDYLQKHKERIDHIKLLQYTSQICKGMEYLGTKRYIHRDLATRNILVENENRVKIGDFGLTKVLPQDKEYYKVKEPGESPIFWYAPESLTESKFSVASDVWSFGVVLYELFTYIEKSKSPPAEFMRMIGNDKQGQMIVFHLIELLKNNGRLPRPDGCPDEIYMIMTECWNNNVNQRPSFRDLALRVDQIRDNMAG
Tyk2, sequence (P29597 whole entry): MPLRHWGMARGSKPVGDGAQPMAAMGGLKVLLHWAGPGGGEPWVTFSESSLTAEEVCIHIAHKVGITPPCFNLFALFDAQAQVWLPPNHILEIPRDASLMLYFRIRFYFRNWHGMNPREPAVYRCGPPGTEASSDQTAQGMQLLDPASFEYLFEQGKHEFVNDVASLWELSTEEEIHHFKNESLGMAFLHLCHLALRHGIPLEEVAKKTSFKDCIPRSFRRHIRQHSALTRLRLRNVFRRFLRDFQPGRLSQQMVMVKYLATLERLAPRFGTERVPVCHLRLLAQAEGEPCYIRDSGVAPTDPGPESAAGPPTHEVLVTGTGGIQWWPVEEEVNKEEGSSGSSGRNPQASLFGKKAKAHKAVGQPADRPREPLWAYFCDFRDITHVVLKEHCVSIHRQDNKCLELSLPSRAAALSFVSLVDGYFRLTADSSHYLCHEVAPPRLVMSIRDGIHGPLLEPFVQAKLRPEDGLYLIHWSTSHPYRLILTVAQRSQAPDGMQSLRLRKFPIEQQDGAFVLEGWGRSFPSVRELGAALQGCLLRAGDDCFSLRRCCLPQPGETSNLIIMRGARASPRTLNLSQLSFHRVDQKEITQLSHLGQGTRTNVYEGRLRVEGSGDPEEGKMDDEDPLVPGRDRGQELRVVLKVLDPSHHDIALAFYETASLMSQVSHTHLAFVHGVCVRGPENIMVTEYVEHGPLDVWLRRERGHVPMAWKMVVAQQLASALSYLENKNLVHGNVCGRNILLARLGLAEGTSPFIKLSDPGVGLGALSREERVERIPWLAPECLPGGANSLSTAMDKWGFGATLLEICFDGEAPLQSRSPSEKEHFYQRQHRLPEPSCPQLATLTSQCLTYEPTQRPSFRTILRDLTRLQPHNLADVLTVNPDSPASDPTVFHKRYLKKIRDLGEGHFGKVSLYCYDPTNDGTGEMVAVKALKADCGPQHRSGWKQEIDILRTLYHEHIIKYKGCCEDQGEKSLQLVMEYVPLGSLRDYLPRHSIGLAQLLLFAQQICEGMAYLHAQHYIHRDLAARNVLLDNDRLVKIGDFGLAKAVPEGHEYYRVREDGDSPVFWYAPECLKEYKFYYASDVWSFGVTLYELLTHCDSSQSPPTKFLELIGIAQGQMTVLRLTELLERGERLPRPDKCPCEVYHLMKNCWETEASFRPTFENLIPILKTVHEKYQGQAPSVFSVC
JAK1, sequence (P23458 whole entry): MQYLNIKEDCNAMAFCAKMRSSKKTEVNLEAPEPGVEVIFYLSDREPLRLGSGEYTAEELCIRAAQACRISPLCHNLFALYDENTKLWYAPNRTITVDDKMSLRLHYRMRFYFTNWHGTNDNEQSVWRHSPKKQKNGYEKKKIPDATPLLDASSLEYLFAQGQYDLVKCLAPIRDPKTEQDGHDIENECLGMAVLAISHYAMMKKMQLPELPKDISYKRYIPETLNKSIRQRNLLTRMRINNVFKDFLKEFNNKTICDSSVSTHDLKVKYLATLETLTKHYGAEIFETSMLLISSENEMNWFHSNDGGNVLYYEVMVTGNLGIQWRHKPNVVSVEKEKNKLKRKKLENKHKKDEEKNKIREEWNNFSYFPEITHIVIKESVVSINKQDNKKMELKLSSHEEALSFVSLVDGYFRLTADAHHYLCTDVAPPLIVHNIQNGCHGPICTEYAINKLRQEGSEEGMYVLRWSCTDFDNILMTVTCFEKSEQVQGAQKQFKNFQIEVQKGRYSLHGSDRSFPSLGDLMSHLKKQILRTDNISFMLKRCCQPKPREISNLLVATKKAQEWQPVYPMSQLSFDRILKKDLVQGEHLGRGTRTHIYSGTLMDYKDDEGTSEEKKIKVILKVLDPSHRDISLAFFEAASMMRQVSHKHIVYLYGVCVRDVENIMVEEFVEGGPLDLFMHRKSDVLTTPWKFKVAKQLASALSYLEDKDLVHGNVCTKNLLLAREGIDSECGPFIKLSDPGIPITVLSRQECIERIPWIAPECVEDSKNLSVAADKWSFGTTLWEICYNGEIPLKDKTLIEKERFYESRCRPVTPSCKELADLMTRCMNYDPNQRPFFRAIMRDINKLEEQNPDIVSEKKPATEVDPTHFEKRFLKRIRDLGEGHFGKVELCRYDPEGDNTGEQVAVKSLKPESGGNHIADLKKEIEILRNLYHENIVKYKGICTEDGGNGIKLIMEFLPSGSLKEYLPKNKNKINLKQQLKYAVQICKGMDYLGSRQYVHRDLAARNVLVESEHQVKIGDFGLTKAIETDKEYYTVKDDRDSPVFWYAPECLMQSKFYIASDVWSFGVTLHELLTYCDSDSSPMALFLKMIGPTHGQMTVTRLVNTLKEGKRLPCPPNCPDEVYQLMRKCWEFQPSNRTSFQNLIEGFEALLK

Row | Structure (SMILES) | IC50 (Tyk2) | IC50 (JAK1) | IC50 (JAK2) | IC50 (JAK3)
1 | Cn1cc(Nc2cc(-c3cnn(C4CN(C(=O)C5CC5)C4)c3)ccn2)cn1 [TDM-180637, cyclopropyl(3-(4-(2-((1-methyl-1H-pyrazol-4-yl)amino)pyridin-4-yl)-1H-pyrazol-1-yl)azetidin-1-yl)ketone] | ≥ 10 µM | ≥ 10 µM | ≥ 10 µM | ≥ 10 µM
2 | Cn1cc(Nc2cc(-c3cnn(C4CN(C(=O)C5CC5(F)F)C4)c3)ccn2)cn1 (centres unmarked) [TDM-180638] | ≥ 10 µM | ≥ 10 µM | ≥ 10 µM | ≥ 10 µM
3 | CCC(=O)N1CC(n2cc(-c3ccnc(Nc4cnn(C)c4)c3)cn2)C1 [TDM-180639, 1-(3-(4-(2-((1-methyl-1H-pyrazol-4-yl)amino)pyridin-4-y1)-1H-pyrazol-1-yl)azetidin-1-yl)propan-1-one] | ≥ 10 µM | ≥ 10 µM | ≥ 10 µM | ≥ 10 µM
4 | CCCC(=O)N1CC(n2cc(-c3ccnc(Nc4cnn(C)c4)c3)cn2)C1 [TDM-180640, 1-(3-(4-(2-((1-methyl-1H-pyrazol-4-yl)amino)pyridin-4-yl)-1H-pyrazol-1-yl)azetidin-1-yl)butan-1-one] | ≥ 10 µM | ≥ 10 µM | ≥ 10 µM | ≥ 10 µM
5 | Cn1cc(Nc2cc(-c3cnn(C4CN(C(=O)CC#N)C4)c3)ccn2)cn1 [TDM-180641, 3-(3-(4-(2-((1-methyl-1H-pyrazol-4-yl)amino)pyridin-4-yl)-1H-pyrazol-1-yl)azetidin-1-yl)-3-oxypropionitrile] | ≥ 10 µM | ≥ 10 µM | ≥ 10 µM | ≥ 10 µM
6 | CCS(=O)(=O)N1CC(n2cc(-c3ccnc(Nc4cnn(C)c4)c3)cn2)C1 [TDM-180642, 4-(1-(1-(ethylsulfonyl)azetidin-3-yl)-1H-pyrazol-4-yl)-N-(1-methyl-1H-pyrazol-4-yl) pyridine-2-amine] | ≥ 10 µM | ≥ 10 µM | ≥ 10 µM | ≥ 10 µM

Further lines, results first:

Row | IC50 (Tyk2) | IC50 (JAK1) | IC50 (JAK2) | IC50 (JAK3) | Structure (SMILES)
7 | ≥ 10 µM | ≥ 10 µM | ≥ 10 µM | ≥ 10 µM | Cn1cc(Nc2cc(-c3cnn(C4CN(C(=O)CC(F)(F)F)C4)c3)ccn2)cn1 [TDM-180636, 3,3,3-trifluoro-1-(3-(4-(2-((1-methyl-1H-pyrazol-4-yl)amino)pyridin-4-yl)-1H-pyrazol-1-yl)azetidin-1-yl)propan-1-one]
8 | 0.1 to 1 µM | 0.1 to 1 µM | – | – | COC(=O)CS(=O)(=O)N1CC(CC#N)(n2cc(-c3ccnc(Nc4cnn(C)c4)n3)cn2)C1 [TDM-180930]
9 | 0.1 to 1 µM | 0.1 to 1 µM | – | – | Cn1cc(Nc2nccc(-c3cnn(C4(CC#N)CN(S(=O)(=O)CC5CC5)C4)c3)n2)cn1 [TDM-180931, 2-(1-((cyclopropylmethyl)sulfonyl)-3-(4-(2-((1-methyl-1H-pyrazol-4-yl)amino)pyrimidin-4-yl)-1H-pyrazol-1-yl)azetidin-3-yl)acetonitrile]
10 | 0.1 to 1 µM | 0.1 to 1 µM | – | – | CC(C)S(=O)(=O)N1CC(CC#N)(n2cc(-c3ccnc(Nc4cnn(C)c4)n3)cn2)C1 [TDM-180932, 2-(1-(isopropylsulfonyl)-3-(4-(2-((1-methyl-1H-pyrazol-4-yl)amino)pyrimidin-4-yl)-1H-pyrazol-1-yl)azetidinpyridin-3-yl)acetonitrile]
11 | < 0.1 µM | < 0.1 µM | – | – | Cn1cc(Nc2nccc(-c3ccn(C4(CC#N)CN(C(=O)[C@@H]5CC5(F)F)C4)c3)n2)cn1 [TDM-180937, (S)-2-(1-(2,2-difluorocyclopropane-1-carbonyl)-3-(3-(2-((1-methyl-1H-pyrazol-4-yl)amino)pyrimidin-4-yl)-1H-pyrrol-1-yl)azetidin-3-yl)acetonitrile]
12 | 0.1 to 1 µM | 0.1 to 1 µM | – | – | Cn1cc(Nc2nccc(-c3ccn(C4(CC#N)CN(C(=O)[C@H]5CC5(F)F)C4)c3)n2)cn1 [TDM-180938, (R)-2-(1-(2,2-difluorocyclopropane-1-carbonyl)-3-(3-(2-((1-methyl-1H-pyrazol-4-yl)amino)pyrimidin-4-yl)-1H-pyrrol-1-yl)azetidin-3-yl)acetonitrile]
